Laboratory results reported in PubChem BioAssay AID248 (DTP/NCI, 2004).
Several values for one entry are separate records, joined by “and”; a condition that tells them apart may be missing. Identical values can stand only once. Inconclusive results and toxic doses are left out. No stated cut-off is given here; in the data, active means T/C of 150% or more; inactive means T/C below 125%.

Tested on: L1210 leukemia ip in BDF1 mice, survival T/C
Test: NCI In Vivo Anticancer Drug Screen. Data for tumor model L1210 Leukemia (intraperitoneal) in B6D2F1 (BDF1) mice
Settings: higher = longer survival
How it was run: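 Each compound was tested against a transplantable tumor grown in mice. The endpoint was survival, with treated animals benchmarked against vehicle controls as a simple ratio.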

[1] = endpoint: mean survival time, dose: 100.0 mg/kg/injection, schedule: Q01DX001 (ip), vehicle: saline
[2] = endpoint: mean survival time, dose: 50.0 mg/kg/injection, schedule: Q01DX001 (ip), vehicle: saline
[3] = endpoint: mean survival time, dose: 200.0 mg/kg/injection, schedule: Q01DX001 (ip), vehicle: saline
[4] = endpoint: mean survival time, dose: 200.0 mg/kg/injection, schedule: Q01DX009 (ip), vehicle: saline
[5] = endpoint: mean survival time, dose: 400.0 mg/kg/injection, schedule: Q01DX001 (ip), vehicle: saline
[6] = endpoint: mean survival time, dose: 75.0 mg/kg/injection, schedule: Q01DX001 (ip), vehicle: carboxymethylcellulose (CMC)
[7] = endpoint: mean survival time, dose: 150.0 mg/kg/injection, schedule: Q01DX001 (ip), vehicle: carboxymethylcellulose (CMC)
[8] = endpoint: mean survival time, dose: 300.0 mg/kg/injection, schedule: Q01DX001 (ip), vehicle: carboxymethylcellulose (CMC)
[9] = endpoint: mean survival time, dose: 100.0 mg/kg/injection, schedule: Q01DX001 (ip), vehicle: carboxymethylcellulose (CMC)
[10] = endpoint: mean survival time, dose: 200.0 mg/kg/injection, schedule: Q01DX001 (ip), vehicle: carboxymethylcellulose (CMC)
[11] = endpoint: mean survival time, dose: 100.0 mg/kg/injection, schedule: Q01DX001 (ip), vehicle: other
[12] = endpoint: mean survival time, dose: 200.0 mg/kg/injection, schedule: Q01DX001 (ip), vehicle: other
[13] = endpoint: mean survival time, dose: 400.0 mg/kg/injection, schedule: Q01DX001 (ip), vehicle: other
[14] = endpoint: mean survival time, dose: 400.0 mg/kg/injection, schedule: Q01DX001 (ip), vehicle: Klucel (hydroxypropylcellulose) (HPC)

Measured: T/C

O=C(c1cccnc1)c1cc(-c2ccccn2)c(=O)n2ccccc12
inactive: endpoint: median survival time, dose: 25.0 mg/kg/injection, schedule: Q01DX009 (ip), vehicle: saline with Tween-80 100 % of control | endpoint: median survival time, dose: 50.0 mg/kg/injection, schedule: Q01DX009 (ip), vehicle: saline with Tween-80 108 % of control | endpoint: median survival time, dose: 100.0 mg/kg/injection, schedule: Q01DX009 (ip), vehicle: saline with Tween-80 91 % of control | endpoint: median survival time, dose: 200.0 mg/kg/injection, schedule: Q01DX009 (ip), vehicle: saline with Tween-80 95 % of control | endpoint: median survival time, dose: 400.0 mg/kg/injection, schedule: Q01DX009 (ip), vehicle: saline with Tween-80 91 % of control

CC1Nc2ccccc2NC1C (stereo not drawn)
inactive: [1] 98 % of control

c1ccc(OCCC[P+](c2ccccc2)(c2ccccc2)c2ccccc2)cc1
inactive: [2] 100 % of control

CC(=O)OCC1OC(S[As](C)SC2OC(COC(C)=O)C(OC(C)=O)C(OC(C)=O)C2OC(C)=O)C(OC(C)=O)C(OC(C)=O)C1OC(C)=O (stereo not drawn)
inactive: endpoint: mean survival time, dose: 6.25 mg/kg/injection, schedule: Q01DX009 (ip), vehicle: saline with Tween-80 101 % of control | endpoint: mean survival time, dose: 12.5 mg/kg/injection, schedule: Q01DX009 (ip), vehicle: saline with Tween-80 116 % of control | endpoint: mean survival time, dose: 25.0 mg/kg/injection, schedule: Q01DX009 (ip), vehicle: saline with Tween-80 116 % of control

CCOC(=O)C(CCCOC(=O)c1cc([N+](=O)[O-])cc([N+](=O)[O-])c1)C(=O)OCC
inactive: [1] 94 % of control | endpoint: mean survival time, dose: 100.0 mg/kg/injection, schedule: Q01DX009 (ip), vehicle: saline 101 % of control | [3] 98 % of control | [4] 101 % of control | [5] 91 % of control | endpoint: mean survival time, dose: 400.0 mg/kg/injection, schedule: Q01DX009 (ip), vehicle: saline 95 % of control

CC(=O)NC1(CO)CCCCC1
inactive: endpoint: mean survival time, dose: 100.0 mg/kg/injection, schedule: Q04DX003 (ip), vehicle: saline 105 % of control | endpoint: mean survival time, dose: 200.0 mg/kg/injection, schedule: Q04DX003 (ip), vehicle: saline 95 % of control | endpoint: mean survival time, dose: 400.0 mg/kg/injection, schedule: Q04DX003 (ip), vehicle: saline 94 % of control

COc1ccc(/C=C/c2cc[n+](C)cc2)cc1OC
inactive: [6] 111 % of control | [7] 109 % of control | [8] 103 % of control

CCCCCCCCSCCC(=O)O
inactive: endpoint: mean survival time, dose: 100.0 mg/kg/injection, schedule: Q01DX009 (ip), vehicle: saline with Tween-80 97 % of control | endpoint: mean survival time, dose: 100.0 mg/kg/injection, schedule: Q04DX003 (ip), vehicle: saline with Tween-80 97 % of control | endpoint: mean survival time, dose: 200.0 mg/kg/injection, schedule: Q01DX009 (ip), vehicle: saline with Tween-80 88 % of control | endpoint: mean survival time, dose: 200.0 mg/kg/injection, schedule: Q04DX003 (ip), vehicle: saline with Tween-80 92 % of control | endpoint: mean survival time, dose: 400.0 mg/kg/injection, schedule: Q04DX003 (ip), vehicle: saline with Tween-80 94 % of control

CCOCc1nc(N)nc(N)c1-c1ccc(Cl)c(Cl)c1
inactive: [9] 97 % of control | [10] 89 % of control | endpoint: mean survival time, dose: 400.0 mg/kg/injection, schedule: Q01DX001 (ip), vehicle: carboxymethylcellulose (CMC) 108 % of control

C/C(=N\O)C(O)c1ccccc1 (stereo not drawn)
inactive: endpoint: mean survival time, dose: 50.0 mg/kg/injection, schedule: Q01DX001 (ip), vehicle: other 97 % of control | [11] 89 % of control | [12] 97 % of control | [13] 92 % of control

COc1ccc(N2C(=O)OC3(CCN(Cc4ccccc4)CC3)C2=O)cc1
inactive: endpoint: mean survival time, dose: 100.0 mg/kg/injection, schedule: Q01DX001 (ip), vehicle: Klucel (hydroxypropylcellulose) (HPC) 96 % of control | endpoint: mean survival time, dose: 200.0 mg/kg/injection, schedule: Q01DX001 (ip), vehicle: Klucel (hydroxypropylcellulose) (HPC) 103 % of control | [14] 92 % of control

O=[N+]([O-])c1ccc(O)c(CNCCCNCc2cc([N+](=O)[O-])ccc2O)c1
inactive: [1] 102 % of control | [3] 98 % of control | [5] 102 % of control

CCCCc1nc2c(c(=O)n(C)c(=O)n2C)n1C
inactive: [2] 96 % of control | [1] 96 % of control | [3] 102 % of control

CC(=O)[C@H]1[C@H](C)C[C@H]2[C@@H]3CCC4=CC(=O)CC[C@]4(C)[C@@]3(F)[C@@H](O)C[C@@]21C
inactive: endpoint: mean survival time, dose: 100.0 mg/kg/injection, schedule: Q01DX009 (ip), vehicle: Klucel (hydroxypropylcellulose) (HPC) 103 % of control | endpoint: mean survival time, dose: 100.0 mg/kg/injection, schedule: Q04DX003 (ip), vehicle: Klucel (hydroxypropylcellulose) (HPC) 100 % of control | endpoint: mean survival time, dose: 200.0 mg/kg/injection, schedule: Q01DX009 (ip), vehicle: Klucel (hydroxypropylcellulose) (HPC) 101 % of control | endpoint: mean survival time, dose: 200.0 mg/kg/injection, schedule: Q04DX003 (ip), vehicle: Klucel (hydroxypropylcellulose) (HPC) 97 % of control | endpoint: mean survival time, dose: 400.0 mg/kg/injection, schedule: Q01DX009 (ip), vehicle: Klucel (hydroxypropylcellulose) (HPC) 97 % of control | endpoint: mean survival time, dose: 400.0 mg/kg/injection, schedule: Q04DX003 (ip), vehicle: Klucel (hydroxypropylcellulose) (HPC) 101 % of control

C=COCC(C)C (tested in a mixture with another compound)
inactive: endpoint: mean survival time, dose: 1.56 mg/kg/injection, schedule: Q01DX001 (ip), vehicle: other 94 % of control | endpoint: mean survival time, dose: 3.12 mg/kg/injection, schedule: Q01DX001 (ip), vehicle: other 91 % of control | endpoint: mean survival time, dose: 3.12 mg/kg/injection, schedule: Q01DX009 (ip), vehicle: other 109 % of control | endpoint: mean survival time, dose: 3.12 mg/kg/injection, schedule: Q04DX003 (ip), vehicle: Klucel (hydroxypropylcellulose) (HPC) 97 % of control | endpoint: mean survival time, dose: 3.13 mg/kg/injection, schedule: Q04DX003 (ip), vehicle: saline 92 % of control | endpoint: mean survival time, dose: 4.7 mg/kg/injection, schedule: Q01DX009 (ip), vehicle: saline 104 % of control | endpoint: mean survival time, dose: 6.25 mg/kg/injection, schedule: Q01DX001 (ip), vehicle: other 96 % of control | endpoint: mean survival time, dose: 6.25 mg/kg/injection, schedule: Q01DX009 (ip), vehicle: Klucel (hydroxypropylcellulose) (HPC) 107 % of control | endpoint: mean survival time, dose: 6.25 mg/kg/injection, schedule: Q01DX009 (ip), vehicle: other 98 % of control | endpoint: mean survival time, dose: 6.25 mg/kg/injection, schedule: Q04DX003 (ip), vehicle: Klucel (hydroxypropylcellulose) (HPC) 114 % of control | endpoint: mean survival time, dose: 6.25 mg/kg/injection, schedule: Q04DX003 (ip), vehicle: saline 94 % of control | endpoint: mean survival time, dose: 7.09 mg/kg/injection, schedule: Q01DX009 (ip), vehicle: Klucel (hydroxypropylcellulose) (HPC) 107 % of control | endpoint: mean survival time, dose: 9.4 mg/kg/injection, schedule: Q01DX009 (ip), vehicle: saline 102 % of control | endpoint: mean survival time, dose: 10.6 mg/kg/injection, schedule: Q01DX009 (ip), vehicle: Klucel (hydroxypropylcellulose) (HPC) 107 % of control | endpoint: mean survival time, dose: 12.5 mg/kg/injection, schedule: Q01DX009 (ip), vehicle: Klucel (hydroxypropylcellulose) (HPC) 93 % of control | endpoint: mean survival time, dose: 12.5 mg/kg/injection, schedule: Q04DX003 (ip), vehicle: Klucel (hydroxypropylcellulose) (HPC) 111 % of control | endpoint: mean survival time, dose: 15.0 mg/kg/injection, schedule: Q01DX001 (ip), vehicle: saline 109 % of control | endpoint: mean survival time, dose: 25.0 mg/kg/injection, schedule: Q04DX003 (ip), vehicle: Klucel (hydroxypropylcellulose) (HPC) 88 % of control | endpoint: mean survival time, dose: 30.0 mg/kg/injection, schedule: Q01DX001 (ip), vehicle: saline 112 % of control | endpoint: mean survival time, dose: 60.0 mg/kg/injection, schedule: Q01DX001 (ip), vehicle: saline 95 % of control | [6] 95 % of control | endpoint: mean survival time, dose: 75.0 mg/kg/injection, schedule: Q04DX003 (ip), vehicle: saline 108 % of control and 110 % of control | [11] 106 % of control and 94 % of control | [7] 114 % of control | endpoint: mean survival time, dose: 150.0 mg/kg/injection, schedule: Q04DX003 (ip), vehicle: saline 98 % of control | [8] 100 % of control | [14] 92 % of control

Nc1n[nH]c2ccccc12
inactive: endpoint: mean survival time, dose: 50.0 mg/kg/injection, schedule: Q04DX002 (ip), vehicle: gum acacia 104 % of control | endpoint: mean survival time, dose: 100.0 mg/kg/injection, schedule: Q04DX002 (ip), vehicle: gum acacia 107 % of control | endpoint: mean survival time, dose: 200.0 mg/kg/injection, schedule: Q04DX002 (ip), vehicle: gum acacia 100 % of control

CCN(CC)CCOC(=O)C1c2ccccc2Oc2ccccc21
inactive: [9] 102 % of control | [10] 94 % of control

O=C(Nc1ccccc1)c1ccccc1C(O)(c1ccccc1)c1ccccc1
inactive: [1] 97 % of control | [3] 86 % of control | [5] 102 % of control

CC1CCC2(OC1)OC1CC3C4CCC5CC(O)CCC5(C)C4CC(=O)OC3(C)C1C2C (stereo not drawn)
inactive: [11] 97 % of control | [12] 87 % of control | [13] 92 % of control

CCCCCNC(C)=O
inactive: [4] 108 % of control
